# Test results published in PMC4538536, “In Silico-Based High-Throughput Screen for Discovery of Novel Combinations for Tuberculosis Treatment” (Antimicrobial Agents and Chemotherapy, 2015).
# Read-outs that look alike come from different tables or passages of the source.
# What was measured:
# [1] = test system: M. tuberculosis H37Rv; assay: MIC determination, resazurin-based microplate assay; assay type: cell-based, Mycobacterium tuberculosis; conditions: Mycobacterium tuberculosis, single drug
# [2] = In vivo pharmacokinetics in infected mice (plasma, LC-MS/MS); parameters: species or system BALB/c mice; conditions: BALB/c, mouse, plasma, po, steady state, infected mice
# Description: The drugs were formulated in 0.5% hydroxypropyl methyl cellulose (HPMC)–0.1% Tween 80 suspensions as 3- or 4-drug combinations. Formulations were prepared by weighing and adding each compound to the bottle, according to the design. Formulation vehicle was added, and the suspension was stirred overnight. Only uniform suspensions were used, while those that precipitated were abandoned. Formulations were prepared every week, and compound stability was estimated at the end of the week. Pharmacokinetics (PK) analysis was performed on infected mice on the 20th day of dosing. Blood samples were collected from each mouse at 0.5, 2, 4, 6, and 24 h after compound administration. Blood samples of about 30 μl were collected from mice in all groups by serial sampling via the saphenous vein into Microvette CB300 tubes (Starstedt, Germany) coated with EDTA, and plasma (10 μl) was separated following centrifugation. Plasma samples were stored at –20°C until analysis using liquid chromatography-tandem mass spectrometry (LC-MS/MS).
# A 1-mg/ml stock solution of each compound was prepared in dimethyl sulfoxide (DMSO) for all of the analytes except PZA and LZD, for which the stock solution was 10 mg/ml in DMSO, and RIF, for which the stock solution was prepared in 50% acetonitrile in water. Three different sets of calibration standard (CS) combinations were prepared by 2-fold dilution of the stock solutions. CS set 1 contained analytes CLO, BDQ, PA824, PZA, and SQ109, CS set 2 contained analytes BTZ043, MXF, THI, EMB, and PZA, and CS set 3 contained LZD, INH, RIF, and PZA. A 16-point calibration curve was utilized for all analytes, and the standard curves ranged from 0.0005 to 20 μg/ml except for PZA and LZD, for which the standard curve range was 0.006 to 200 μg/ml. Plasma samples were precipitated by adding chilled acetonitrile (1:10, vol/vol) containing carbamazepine as an internal standard (10 ng/ml). Samples were vortexed and then centrifuged at 4,000 rpm for 30 min at 10°C. The resulting supernatant was mixed with the mobile phase (50% acetonitrile in water with 0.1% formic acid). Five microliters of the sample was injected on to a liquid chromatographic system (Acquity ultraperformance liquid chromatography [UPLC] system, Waters, Milford, MA) coupled to a triple-quadrupole mass spectrometer (Xevo TQ-S; Waters, Milford, MA). Samples were separated on an LC column (ACE 3 C18, 50 by 4.6 mm, 3 μm particle size; Advanced Chromatography Technologies, Aberdeen, Scotland) by isocratic elution with 40 parts of 20 mM ammonium formate containing 0.1% (vol/vol) formic acid and 60 parts of acetonitrile at a flow rate of 0.5 ml/min with a run time of 4 min. Samples were acquired in positive ion mode and detected by multiple reaction monitoring (MRM). The concentrations of the analyte were determined from a standard curve obtained by plotting known concentrations of the analyte against peak area ratios (analyte/internal standard peak response).
# PK analyses of the plasma concentration-time relationships were performed with Phoenix software (version 6.2; Pharsight, USA). A noncompartmental analysis program, model 200, was used to calculate PK parameters. The maximum concentration of drug in plasma (Cmax), time to Cmax (Tmax), elimination half-life (t1/2), and area under the concentration-time curve (AUC) from time zero to infinity (AUC0–∞) were estimated. AUC was computed using the trapezoidal rule (linear up and log down), and the AUC0–∞ was considered only when the extrapolated AUC was not more than 20% of the original value. A minimum of three sample points in the terminal slope were used to calculate half-life.
# [3] = test system: M. tuberculosis H37Rv; assay: In vitro bactericidal-effect analysis (CFU enumeration of checkerboard wells); assay type: cell-based, Mycobacterium tuberculosis; conditions: single drug at its MIC (FIC of 1); positive = reduction in CFU
# Description: For determining the extent of the bactericidal effect, sample wells which remained blue in the resazurin microtiter assay (REMA) and whose ΣFICs were within the synergistic-to-additive range (<0.7 for doublets and <1.5 for triplets) were plated on Middlebrook 7H10 agar medium and incubated at 37°C for 21 to 28 days, following which bacterial colonies were enumerated to obtain the net reduction in CFU in comparison to the counts for the untreated controls at the start of drug testing, as well as to that achieved when M. tuberculosis was exposed to each drug alone.
# [4] = 150 mg/kg, Group 7 quartet PA824 50/BDQ 25/MXF 400/PZA 150 mg/kg oral, read-out: AUC0-24 in Quartet
# [5] = 150 mg/kg, Group 7 quartet PA824 50/BDQ 25/MXF 400/PZA 150 mg/kg oral, read-out: Cmax in Quartet
# [6] = 400 mg/kg, Group 7 triplet PA824 50/BDQ 25/MXF 400 mg/kg oral, read-out: AUC0-24 in Triplet
# [7] = 400 mg/kg, Group 7 triplet PA824 50/BDQ 25/MXF 400 mg/kg oral, read-out: Cmax in Triplet
structure (smiles),measurement,setting,value
COc1c(N2C[C@@H]3CCCN[C@@H]3C2)c(F)cc2c(=O)c(C(=O)O)cn(C3CC3)c12 [Moxifloxacin],MIC,[1],0.02 µM
same,AUC(0-t),"[2]; 150 mg/kg, Group 3 quartet BTZ043 37.5/SQ109 25/MXF 200/PZA 150 mg/kg oral, read-out: AUC0-24 in Quartet",13300 ± 3100 ng·h/mL
same,Cmax,"[2]; 150 mg/kg, Group 3 quartet BTZ043 37.5/SQ109 25/MXF 200/PZA 150 mg/kg oral, read-out: Cmax in Quartet",3900 ± 600 ng/mL
same,AUC(0-t),[2]; [4],76300 ± 13900 ng·h/mL
same,Cmax,[2]; [5],5100 ± 700 ng/mL
same,AUC(0-t),"[2]; 200 mg/kg, Group 3 triplet BTZ043 37.5/SQ109 25/MXF 200 mg/kg oral, read-out: AUC0-24 in Triplet",12100 ± 3500 ng·h/mL
same,Cmax,"[2]; 200 mg/kg, Group 3 triplet BTZ043 37.5/SQ109 25/MXF 200 mg/kg oral, read-out: Cmax in Triplet",2200 ± 900 ng/mL
same,AUC(0-t),[2]; [6],29800 ± 6600 ng·h/mL
same,Cmax,[2]; [7],4600 ± 800 ng/mL
same,ΔLog10 CFU/ml at the MIC,[3],1.40 Log10 CFU/ml
O=[N+]([O-])c1cn2c(n1)OC[C@@H](OCc1ccc(OC(F)(F)F)cc1)C2 [PA824],MIC,[1],1.09 µM
same,AUC(0-t),"[2]; 50 mg/kg, Group 1 triplet CFZ 20/BDQ 25/PA824 50 mg/kg oral, read-out: AUC0-24 in Triplet",76700 ± 18500 ng·h/mL
same,Cmax,"[2]; 50 mg/kg, Group 1 triplet CFZ 20/BDQ 25/PA824 50 mg/kg oral, read-out: Cmax in Triplet",11200 ± 2400 ng/mL
same,AUC(0-t),"[2]; 50 mg/kg, Group 2 triplet SQ109 25/BDQ 25/PA824 50 mg/kg oral, read-out: AUC0-24 in Triplet",86200 ± 8600 ng·h/mL
same,Cmax,"[2]; 50 mg/kg, Group 2 triplet SQ109 25/BDQ 25/PA824 50 mg/kg oral, read-out: Cmax in Triplet",9300 ± 2300 ng/mL
same,AUC(0-t),"[2]; 100 mg/kg, Group 8 triplet PA824 50/BDQ 25/EMB 100 mg/kg oral, read-out: AUC0-24 in Triplet",119000 ± 13800 ng·h/mL
same,Cmax,"[2]; 100 mg/kg, Group 8 triplet PA824 50/BDQ 25/EMB 100 mg/kg oral, read-out: Cmax in Triplet",13300 ± 500 ng/mL
same,AUC(0-t),"[2]; 150 mg/kg, Group 1 quartet CFZ 20/BDQ 25/PA824 50/PZA 150 mg/kg oral, read-out: AUC0-24 in Quartet",60900 ± 8000 ng·h/mL
same,Cmax,"[2]; 150 mg/kg, Group 1 quartet CFZ 20/BDQ 25/PA824 50/PZA 150 mg/kg oral, read-out: Cmax in Quartet",7800 ± 1100 ng/mL
same,AUC(0-t),"[2]; 150 mg/kg, Group 2 quartet SQ109 25/BDQ 25/PA824 50/PZA 150 mg/kg oral, read-out: AUC0-24 in Quartet",60700 ± 10000 ng·h/mL
same,Cmax,"[2]; 150 mg/kg, Group 2 quartet SQ109 25/BDQ 25/PA824 50/PZA 150 mg/kg oral, read-out: Cmax in Quartet",7300 ± 1100 ng/mL
same,AUC(0-t),[2]; [4],92100 ± 12700 ng·h/mL
same,Cmax,[2]; [5],6000 ± 800 ng/mL
same,AUC(0-t),"[2]; 150 mg/kg, Group 8 quartet PA824 50/BDQ 25/EMB 100/PZA 150 mg/kg oral, read-out: AUC0-24 in Quartet",66400 ± 19000 ng·h/mL
same,Cmax,"[2]; 150 mg/kg, Group 8 quartet PA824 50/BDQ 25/EMB 100/PZA 150 mg/kg oral, read-out: Cmax in Quartet",9800 ± 3600 ng/mL
same,AUC(0-t),[2]; [6],134000 ± 41700 ng·h/mL
same,Cmax,[2]; [7],8400 ± 1000 ng/mL
same,ΔLog10 CFU/ml at the MIC,[3],1.07 Log10 CFU/ml
CO[C@H]1/C=C/O[C@@]2(C)Oc3c(C)c(O)c4c(O)c(c(/C=N/N5CCN(C)CC5)c(O)c4c3C2=O)NC(=O)/C(C)=C\C=C\[C@H](C)[C@H](O)[C@@H](C)[C@@H](O)[C@@H](C)[C@H](OC(C)=O)[C@@H]1C [Rifampin],MIC,[1],0.009 µM
same,AUC(0-t),"[2]; 100 mg/kg, Ref. regimen triplet INH 30/RIF 10/EMB 100 mg/kg oral, read-out: AUC0-24 in Triplet",25400 ± 7300 ng·h/mL
same,Cmax,"[2]; 100 mg/kg, Ref. regimen triplet INH 30/RIF 10/EMB 100 mg/kg oral, read-out: Cmax in Triplet",4900 ± 1300 ng/mL
same,AUC(0-t),"[2]; 150 mg/kg, Ref. regimen quartet INH 30/RIF 10/EMB 100/PZA 150 mg/kg oral, read-out: AUC0-24 in Quartet",22200 ± 8600 ng·h/mL
same,Cmax,"[2]; 150 mg/kg, Ref. regimen quartet INH 30/RIF 10/EMB 100/PZA 150 mg/kg oral, read-out: Cmax in Quartet",5500 ± 3000 ng/mL
same,ΔLog10 CFU/ml at the MIC,[3],1.24 Log10 CFU/ml
CC(=O)Nc1ccc(/C=N/NC(N)=S)cc1 [Thiacetazone],MIC,[1],8.47 µM
same,AUC(0-t),"[2]; 25 mg/kg, Group 6 triplet BTZ043 37.5/THI 800/SQ109 25 mg/kg oral, read-out: AUC0-24 in Triplet",87000 ± 52100 ng·h/mL
same,Cmax,"[2]; 25 mg/kg, Group 6 triplet BTZ043 37.5/THI 800/SQ109 25 mg/kg oral, read-out: Cmax in Triplet",8500 ± 2800 ng/mL
same,AUC(0-t),"[2]; 150 mg/kg, Group 6 quartet BTZ043 37.5/THI 800/SQ109 25/PZA 150 mg/kg oral, read-out: AUC0-24 in Quartet",68000 ± 16000 ng·h/mL
same,Cmax,"[2]; 150 mg/kg, Group 6 quartet BTZ043 37.5/THI 800/SQ109 25/PZA 150 mg/kg oral, read-out: Cmax in Quartet",5100 ± 400 ng/mL
same,ΔLog10 CFU/ml at the MIC,[3],0.76 Log10 CFU/ml
